Assay results published in patent US20220091133A1, “METHODS AND ASSAYS FOR IMMUNE PHENOTYPING” (Washington University, priority 2020, published 2022).

How the values were obtained:
[1] = system: PBMCs (monocyte TNF-α production); format: cell-based, human
[2] = system: diluted whole blood (myeloid cell TNF-α production); experiment: Whole blood ELISpot, LPS-stimulated TNF-α production (Example 2); format: cell-based, human
Experimental: Innate and adaptive immune function was assessed using ELISpot analysis by measurement of the production of IFN-γ and TNF-α in ex vivo-stimulated cells following overnight culture. Capture Ab precoated 96-well polyvinylidene difluoride-backed strip plates were used for single color enzymatic assays (ImmunoSpot; Cellular Technology [CTL], Cleveland, Ohio) for detection of human IFN-γ and TNF-α. ELISpot culture procedure was followed as directed using instructions from the ELISpot kit. Samples were run in duplicate for each test condition. Plates were prepared with stimulant and were incubated at 37° C. and 5% CO2 for 30 min prior to plating cells. Identical conditions were prepared for comparison of whole blood assay to PBMC assay, and culture media alone was used as a negative control. […] PBMCs were plated into wells in quantities of 2.5×10^4 cells per well for IFN-γ and 2.5×10^3 cells per well for TNF-α. […]
Samples were scanned, analyzed, and quality controlled for spot count, spot area, and TWI using a Cellular Technology series 6 ImmunoSpot Universal Analyzer with ImmunoSpot 7.0 professional software (Cellular Technology Analyzers, Shaker Heights, Ohio). […]
The number of cytokine-secreting cells present in each ELISpot well is referred to as spot-forming units (SFU) and is reported in two distinct ways. […] The number of lymphocytes in each well was determined based upon the absolute lymphocyte count as measured by the patients' complete blood count. For ELISpot studies involving PBMCs, flow cytometry was performed on the PBMC fraction, and the number of lymphocytes, monocytes, and residual neutrophils were determined. […] Samples were acquired on FACScan (Becton Dickenson, Franklin Lakes, N.J.) with a five-color modification (CyTek Biosciences, Fremont, Calif.) and analyzed using FlowJo 10.2 (FlowJo, Ashland, Oreg.) as previously described (28). […]

[3] = system: invasive fungal soft tissue infection (Trichosporon asahii, Fusarium, Saksenaea); experiment: IL-7 immunotherapy in a patient with intractable fungal wound sepsis (clinical course, lymphocyte count); format: in vivo, human
Experimental: Twenty-four hours later, the dosage was increased to 10 μg/kg and continued every 3-4 days for 7 doses. […] As illustrated by serial pictures of the wound, the most notable change following initiation of IL-7 was to slow the progression of the invasive soft tissue necrosis (FIG. 28B, green arrows).
In addition to decreased infectious spread and fungal proliferation, with improved wound healing and healthier-appearing tissue margins, clinical indicators of severity of disease improved within days of IL-7 treatment initiation with improvement of the fever curve, tachycardia, and tachypnea (FIG. 30). Laboratory evidence of resolution of the fungal invasion included progressive decreases in total white blood cell count and increasing absolute lymphocyte counts (FIG. 28A). The patient's absolute lymphocyte count increased >6-fold from a low of 600 lymphocytes/μL to >4000 lymphocytes/μL (upper limit of normal for absolute lymphocyte counts is 3500). Of note, the increase in the patient's absolute lymphocyte count was likely due to both the effect of IL-7 in inducing lymphocyte proliferation and to the resolution of the fungal infection.

[4] = system: PBMCs (T cell IFN-γ production); experiment: ELISpot, CD3/CD28-stimulated IFN-γ in patient PBMCs before and after IL-7 therapy (Example 5); format: in vivo, human; conditions: concomitant with initiation of IL-7 treatment
[5] = Enzyme-linked immunosorbent assays for plasma type I IFN levels (Example 5); format: in vivo, human; conditions: plasma of critically ill COVID-19 patient
fungal sepsis = conditions: in vivo; cited from earlier work

Substance: IL-7: recombinant human IL-7, immunoadjuvant and potent T cell activator; R&D Systems ex vivo, RevImmune for patients
- mean increase in LPS-induced TNF-α-producing cells after IL-7 coincubation ([1]; COVID-19 patient PBMCs, LPS + IL-7, not statistically significant): 101%
- effect of IL-7 on monocyte TNF-α production ([1]; COVID-19 patients, LPS vs LPS + IL-7, n=25): did not increase
- change in TNF-α SFUs with IL-7 ([2]; CINS): no change
- change in TNF-α SFUs with IL-7 ([2]; healthy subjects, p<0.01): significant decrease
- effect of IL-7 on the number of TNF-α-producing cells ([2]; septic patients, LPS + IL-7): does not increase
- tolerability of IL-7 test dose ([3]; 3 μg/kg ideal body weight intramuscularly, day 59 postinjury): well tolerated
- onset of significant improvement of clinical status after initiation of IL-7 ([3]; 10 μg/kg every 3-4 days for 7 doses after test dose): 4 to 7 days
- definitive closure of open wounds ([3]; after resolution of wound fungal infection, >700 cm^2): > 90%
- absolute lymphocyte count reached ([3]; from a low of 600 lymphocytes/μL, upper limit of normal 3500): > 4000 lymphocytes/μL
- increase of absolute lymphocyte count ([3]; fungal wound sepsis patient on IL-7): > 6 fold
- increase in the number of IFN-γ-producing T cells [4]: multifold increases
- IFN-α (all subtypes) plasma concentration ([5]; Post IL-7, Day 12): Undetectable
- IFN-β plasma concentration ([5]; Post IL-7, Day 12): 130 pg/mL
- IFN-α (all subtypes) plasma concentration ([5]; Post IL-7, Day 21): Undetectable
- IFN-β plasma concentration ([5]; Post IL-7, Day 21): 4.1 pg/mL
- survival in a 2-hit animal model of fungal sepsis (fungal sepsis): increase survival
